Experimental data: BigSolDB 2.1

C=CC(=O)Nc1cc(Nc2nccc(-c3cn(C)c4ccccc34)n2)c(OC)cc1N(C)CCN(C)C
Conditions | solubility (mole fraction)
in PEG-400, 298.2 K | 0.00214
in PEG-400, 303.2 K | 0.00307
in PEG-400, 308.2 K | 0.00421
in PEG-400, 313.2 K | 0.00583
in PEG-400, 318.2 K | 0.00733

solubility (mole fraction)
Conditions | in dichloromethane | in ethanol | in ethyl acetate | in isopropyl myristate | in propylene glycol | in transcutol | in water
298.2 K | 0.000939 | 0.000472 | 0.00129 | 0.000794 | 0.000766 | 0.00144 | 1.85e-05
303.2 K | 0.0014 | 0.000703 | 0.00174 | 0.00122 | 0.00106 | 0.0022 | 2.24e-05
308.2 K | 0.00196 | 0.000989 | 0.00241 | 0.00186 | 0.00143 | 0.00337 | 2.72e-05
313.2 K | 0.0028 | 0.00131 | 0.0031 | 0.00263 | 0.00206 | 0.0046 | 3.18e-05
318.2 K | 0.00366 | 0.00176 | 0.00398 | 0.00344 | 0.00265 | 0.00638 | 3.69e-05
